Reference: US7402548B2, “Benzoxazole compounds, process for producing the same and herbicides” (Kyoyu Agri Co., Ltd., priority 2000, dated 2008)

How the values were obtained:
green foxtail [1] = test: Foliar spread test for upland field; type: in vivo, Setaria viridis; parameters: key: 0 = normal development, 5 = all killed (6 ranks vs. untreated); conditions: foliar spray, 500 ppm, 3 weeks, glass house 25° C.
In short: (§1)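 Plants grown about 2 weeks at 25 °C in volcanic ash soil were sprayed with wettable powder diluted to 500 ppm in water with 0.5% surfactant. After 3 weeks at 25 °C, damage was scored 0 (normal) to 5 (all killed) against untreated plants.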

annual bluegrass [2] = test: Foliar spread test for upland field; type: in vivo, Poa annua; parameters: key: 0 = normal development, 5 = all killed (6 ranks vs. untreated); conditions: foliar spray, 500 ppm, 3 weeks, glass house 25° C.
In short: as §1

morning glory [3] = test: Foliar spread test for upland field; type: in vivo, Ipomoea spps.; parameters: key: 0 = normal development, 5 = all killed (6 ranks vs. untreated); conditions: foliar spray, 500 ppm, 3 weeks, glass house 25° C.
In short: as §1

common lambsquarters [4] = test: Soil treatment test for upland field; type: in vivo, Chenopodium album; parameters: key: 0 = normal development, 5 = all killed; conditions: 500 g/ha, 3 weeks, glass house 25° C.
In short: (§2)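 Scored on a 0–5 scale (0 normal growth, 5 all killed) relative to untreated plots after 3 weeks in a glasshouse averaging 25° C. Compound applied as surfactant-containing (0.05%) aqueous dilution of wettable powder onto the surface of sown Ube alluvial soil at 500 g/ha.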

wheat [5] = test: Foliar spread test for upland field; type: in vivo; parameters: key: 0 = normal development, 5 = all killed (6 ranks vs. untreated); conditions: foliar spray, 500 ppm, 3 weeks, glass house 25° C.
In short: as §1

corn [6] = test: Foliar spread test for upland field; type: in vivo; parameters: key: 0 = normal development, 5 = all killed (6 ranks vs. untreated); conditions: foliar spray, 500 ppm, 3 weeks, glass house 25° C.
In short: as §1

cotton [7] = test: Foliar spread test for upland field; type: in vivo; parameters: key: 0 = normal development, 5 = all killed (6 ranks vs. untreated); conditions: foliar spray, 500 ppm, 3 weeks, glass house 25° C.
In short: as §1

soybean [8] = test: Foliar spread test for upland field; type: in vivo; parameters: key: 0 = normal development, 5 = all killed (6 ranks vs. untreated); conditions: foliar spray, 500 ppm, 3 weeks, glass house 25° C.
In short: as §1

solgum [9] = test: Foliar spread test for upland field; type: in vivo; parameters: key: 0 = normal development, 5 = all killed (6 ranks vs. untreated); conditions: foliar spray, 500 ppm, 3 weeks, glass house 25° C.
In short: as §1

sugar beat [10] = test: Foliar spread test for upland field; type: in vivo; parameters: key: 0 = normal development, 5 = all killed (6 ranks vs. untreated); conditions: foliar spray, 500 ppm, 3 weeks, glass house 25° C.
In short: as §1

barnyard grass [11] = test: Soil treatment test for upland field; type: in vivo, Eschinochloa crusgalli; parameters: key: 0 = normal development, 5 = all killed; conditions: 500 g/ha, 3 weeks, glass house 25° C.
In short: as §2

Large crabgrass [12] = test: Soil treatment test for upland field; type: in vivo, Digitaria adscendens; parameters: key: 0 = normal development, 5 = all killed; conditions: 500 g/ha, 3 weeks, glass house 25° C.
In short: as §2

Large crabgrass [13] = test: Foliar spread test for upland field; type: in vivo, Digitaria adscendens; parameters: key: 0 = normal development, 5 = all killed (6 ranks vs. untreated); conditions: foliar spray, 500 ppm, 3 weeks, glass house 25° C.
In short: as §1

velvetleaf [14] = test: Foliar spread test for upland field; type: in vivo, Abutilon theophrasti; parameters: key: 0 = normal development, 5 = all killed (6 ranks vs. untreated); conditions: foliar spray, 500 ppm, 3 weeks, glass house 25° C.
In short: as §1

common lambsquarters [15] = test: Foliar spread test for upland field; type: in vivo, Chenopodium album; parameters: key: 0 = normal development, 5 = all killed (6 ranks vs. untreated); conditions: foliar spray, 500 ppm, 3 weeks, glass house 25° C.
In short: as §1

cotton [16] = test: Soil treatment test for upland field; type: in vivo; conditions: 500 g/ha, 3 weeks, glass house 25° C.
Description: The herbicidal effects are evaluated according to the following 6 ranks as compared with non-treated district. (0: normal development, 1: Less damaged, 2: Slightly damaged, 3: Moderately damaged, 4: Severely damaged, 5: All killed). Incidentally, “-” in the column means not investigated.
Wagner pots, each having an area of 1/5000 are, were packed with Ube soil (alluvial soil), and then each seed of corn, soybean, cotton, wheat, solgum, sugar beat, Large crabgrass, barnyard grass, green foxtail, blackgrass, annual bluegrass, common lambsquarters, livid amaranth, velvetleaf, morning glory, common Cocklebur (Xanthium strumarium) and sicklepod (Cassia obtusifolia) were planted and covered with soil.
Each wettable powder of the desired compounds (I) shown in Tables 1 to 21, 24, 25, 28 and 29 prepared in accordance with Example 2 was diluted with water containing a surfactant (0.05%) and uniformly sprayed on the surface of each soil so that an effective concentration of the compound (I) in each herbicide became 500 g/ha.
These plants were controlled in a glass house at an average temperature of 25° C. for 3 weeks, and then herbicidal effects thereof were investigated.
The herbicidal effects were evaluated according to the evaluation method described in the above (1).

livid amaranth [17] = test: Soil treatment test for upland field; type: in vivo, Amaranthus lividus; parameters: key: 0 = normal development, 5 = all killed; conditions: 500 g/ha, 3 weeks, glass house 25° C.
In short: as §2

Cyperus serotinus Rottb. = test: Herbicidal test for paddy field; type: in vivo; conditions: 500 g/ha, dropwise addition to paddy water at 1.5 leaf stage of barnyard grass; glass house 25° C., 3 weeks; rank 0-5 vs non-treated district
In short: (§3)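 Wettable-powder formulations in water with 0.05% surfactant were dripped onto flooded (3 cm) Ube alluvial-soil pots at 500 g/ha, applied at barnyard grass 1.5-leaf stage. Plants were kept in a glasshouse at 25° C. for 3 weeks. Damage was scored 0 (normal) to 5 (all killed) versus untreated plants.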

velvetleaf [18] = test: Soil treatment test for upland field; type: in vivo, Abutilon theophrasti; parameters: key: 0 = normal development, 5 = all killed; conditions: 500 g/ha, 3 weeks, glass house 25° C.
In short: as §2

annual bluegrass [19] = test: Soil treatment test for upland field; type: in vivo, Poa annua; parameters: key: 0 = normal development, 5 = all killed; conditions: 500 g/ha, 3 weeks, glass house 25° C.
In short: as §2

blackgrass [20] = test: Foliar spread test for upland field; type: in vivo, Alopecurus aegualis; parameters: key: 0 = normal development, 5 = all killed (6 ranks vs. untreated); conditions: foliar spray, 500 ppm, 3 weeks, glass house 25° C.
In short: as §1

bulrush = test: Herbicidal test for paddy field; type: in vivo, Scrips juncoides; conditions: 500 g/ha, dropwise addition to paddy water at 1.5 leaf stage of barnyard grass; glass house 25° C., 3 weeks; rank 0-5 vs non-treated district
In short: as §3

green foxtail [21] = test: Soil treatment test for upland field; type: in vivo, Setaria viridis; parameters: key: 0 = normal development, 5 = all killed; conditions: 500 g/ha, 3 weeks, glass house 25° C.
In short: as §2

barnyard grass [22] = test: Herbicidal test for paddy field; type: in vivo, Eschinochloa crusgalli; conditions: 500 g/ha, dropwise addition to paddy water at 1.5 leaf stage of barnyard grass; glass house 25° C., 3 weeks; rank 0-5 vs non-treated district
In short: as §3

livid amaranth [23] = test: Foliar spread test for upland field; type: in vivo, Amaranthus lividus; parameters: key: 0 = normal development, 5 = all killed (6 ranks vs. untreated); conditions: foliar spray, 500 ppm, 3 weeks, glass house 25° C.
In short: as §1

barnyardgrjass = test: Foliar spread test for upland field; type: in vivo, Eschinochloa crusgalli; parameters: key: 0 = normal development, 5 = all killed (6 ranks vs. untreated); conditions: foliar spray, 500 ppm, 3 weeks, glass house 25° C.
In short: as §1

blackgrass [24] = test: Soil treatment test for upland field; type: in vivo, Alopecurus aegualis; parameters: key: 0 = normal development, 5 = all killed; conditions: 500 g/ha, 3 weeks, glass house 25° C.
In short: as §2

morning glory [25] = test: Soil treatment test for upland field; type: in vivo, Ipomoea spps.; parameters: key: 0 = normal development, 5 = all killed; conditions: 500 g/ha, 3 weeks, glass house 25° C.
In short: as §2

wheat [26] = test: Soil treatment test for upland field; type: in vivo; parameters: key: 0 = normal development, 5 = all killed; conditions: 500 g/ha, 3 weeks, glass house 25° C.
In short: as §2

corn [27] = test: Soil treatment test for upland field; type: in vivo; parameters: key: 0 = normal development, 5 = all killed; conditions: 500 g/ha, 3 weeks, glass house 25° C.
In short: as §2

soybean [28] = test: Soil treatment test for upland field; type: in vivo; parameters: key: 0 = normal development, 5 = all killed; conditions: 500 g/ha, 3 weeks, glass house 25° C.
In short: as §2

solgum [29] = test: Soil treatment test for upland field; type: in vivo; parameters: key: 0 = normal development, 5 = all killed; conditions: 500 g/ha, 3 weeks, glass house 25° C.
In short: as §2

sugar beat [30] = test: Soil treatment test for upland field; type: in vivo; parameters: key: 0 = normal development, 5 = all killed; conditions: 500 g/ha, 3 weeks, glass house 25° C.
In short: as §2

Structure (SMILES)	Effects Green foxtail (green foxtail [1])	Effects Annual bluegrass (annual bluegrass [2])	Effects Morning glory (morning glory [3])	Effects Common lambsquarters (common lambsquarters [4])	Effects Wheat (wheat [5])	Effects Corn (corn [6])	Effects Sotton (cotton [7])	Effects Soybean (soybean [8])	Effects Solgum (solgum [9])	Effects Sugar beat (sugar beat [10])	Effects Barnyardgrass (barnyard grass [11])	Effects Large crabgrass (Large crabgrass [12])	Effects Large crabgrass (Large crabgrass [13])	Effects Velvetleaf (velvetleaf [14])	Effects Common lambsquarters (common lambsquarters [15])	Effects Sotton (cotton [16])	Effects Livid amaranth (livid amaranth [17])	Effects Velvetleaf (velvetleaf [18])	Effects Annual bluegrass (annual bluegrass [19])	Effects Blackgrass (blackgrass [20])	also measured
CC/C(=C\c1ccc(F)c(C(F)(F)F)c1)c1nc2cc(Cl)ccc2o1 [I-c-54, (E)-2-(5-chlorobenzoxazol-2-yl)-1-(4-fluoro-3-trifluoromethylphenyl)butene]	4	4	3	5	2	3	3	4	3	5	5	5	4	3	5	3	5	5	5	4	Effects Cyperus serotinus Rottb. (Cyperus serotinus Rottb.): 3; Effects Bulrush (bulrush): 3; Effects Green foxtail (green foxtail [21]): 5; Effects Barnyardgrass (barnyard grass [22]): 5; Effects Livid amaranth (livid amaranth [23]): 5; Effects Barnyardgrass (barnyardgrjass): 2; Effects Blackgrass (blackgrass [24]): 5; Effects Morning glory (morning glory [25]): 5; Effects Wheat (wheat [26]): 1; Effects Corn (corn [27]): 1; Effects Soybean (soybean [28]): 5; Effects Solgum (solgum [29]): 2; Effects Sugar beat (sugar beat [30]): 5
CCC(O)(Cc1ccc(F)c(C(F)(F)F)c1)c1nc2cc(Cl)ccc2o1 (stereo not drawn) [I-d-11, 1-(5-chlorobenzoxazol-2-yl)-1-(4-fluoro-3-trifluoromethylbenzyl)propanol]	–	–	–	–	–	–	–	–	–	–	–	–	–	–	–	–	–	–	–	–	melting point: 90 to 93 °C
CCC(F)(Cc1ccc(F)c(C(F)(F)F)c1)c1nc2cc(Cl)ccc2o1 (stereo not drawn) [I-d-13, 1-(5-chlorobenzoxazol-2-yl)-1-(4-fluoro-3-trifluoromethylbenzyl)propyl fluoride]	2	1	5	5	1	2	5	5	1	5	2	5	2	4	5	0	5	5	5	1	Effects Green foxtail (green foxtail [21]): 5; Effects Livid amaranth (livid amaranth [23]): 5; Effects Barnyardgrass (barnyardgrjass): 1; Effects Blackgrass (blackgrass [24]): 4; Effects Morning glory (morning glory [25]): 1; Effects Wheat (wheat [26]): 0; Effects Corn (corn [27]): 0; Effects Solgum (solgum [29]): 0; Effects Sugar beat (sugar beat [30]): 5
